One experiment concerns intracellular HBV DNA. In words: Real-time PCR for intracellular HBV DNA in HepAD38 cells. The experiment is classed as cell-based, hepatitis B virus (HBV). To be noted: treated for 65 hours, intracellular HBV DNA by real-time PCR. On the procedure: HepAD38 cells were cultured in DMEM medium (Welgene) supplemented with 200 unit/mL penicillin, 200 μg/mL streptomycin, and 10% FBS. During maintenance and passage, the cells were cultured together with 0.4 μg/mL tetracycline. Two days before the treatment with compounds for inducing HBV replication was started, the medium was replaced with a tetracycline-free complete growth medium. […]
HepAD38 cells were treated with a compound for 65 hours and then recovered, and intracellular HBV DNA was extracted therefrom according to the protocol in the DNeasy Blood & Tissue Kit (Qiagen). The primers and probes used to quantify HBV DNA were 5′-[…]-3′, 5′-[…]-3′, and 5′-/56-FAM/TGT CCT GGT/ZEN/[…]/3IABKFQ/-3′. The HBV DNA was amplified by real-time PCR assay using LightCycler 480 (Roche) (J. Virol., 2018, 92(16):e00339-18). All of the processes were confirmed in duplicate.
(Real-time PCR tracks product formation cycle by cycle.)

The target in experiment [1] is Protein (capsid assembly) (Hepatitis B virus genotype D subtype ayw, UniProt P03146). In words: Protein inhibition (capsid assembly inhibition), Table 1. The experiment is classed as biochemical. Conditions: for EC50: NVR value of the same run in brackets, read-out: Protein EC50.
Protein (capsid assembly), sequence (P03146 whole entry): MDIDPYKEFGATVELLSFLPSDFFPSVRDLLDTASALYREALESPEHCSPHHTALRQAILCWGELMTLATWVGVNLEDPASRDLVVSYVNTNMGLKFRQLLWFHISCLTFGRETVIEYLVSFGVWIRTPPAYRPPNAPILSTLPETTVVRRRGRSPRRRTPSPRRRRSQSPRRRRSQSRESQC
The mark [2] stands for this setting: Hepatitis B virus, HePAD38, 65 h.
[3] abbreviates: @30 μM, read-out: Protein % inhibition rate (@30 μM).

Values joined by “and” are separate entries in the source; they are usually repeats but may differ in a detail not shown here. Equal values may be shown once. Read-outs that look alike come from different tables or passages of the source. A value given as a limit tells only on which side of the number the result lay.

The values below come from US20250235462A1, “NOVEL CAPSID ASSEMBLY INHIBITORS” (AM SCIENCES INC, priority 2021, published 2025).

Broadly, the IC50 is the concentration that gives 50% inhibition. In general, inhibition refers to the relative decrease from the control value, in per cent. A word on the EC50: it is the concentration at which the effect is half-maximal.

As for `O=C(Nc1ccccc1Cl)N(Cc1nnc2n1CCCCC2)c1ccc2c(c1)OCO2` [Example 5, 1-(Benzo[d][1,3]dioxol-5-yl)-3-(2-chlorophenyl)-1-((6,7,8,9-tetrahydro-5H-[1,2,4]triazolo[4,3-a]azepin-3-yl)methyl)urea], the IC50 in the experiment with intracellular HBV DNA (setting [2]) was greater than 3.3 µM. In addition, the inhibition at 30 µM in experiment [1] (setting [3]) amounted to 9%.

For `COc1ccc(N(Cc2nnc3n2CCN(C(=O)OCc2ccccc2)CC3)C(=O)Nc2ccc(F)c(Cl)c2)cc1` [Example 38, Benzyl 3-((3-(3-chloro-4-fluorophenyl)-1-(4-methoxyphenyl)ureido)methyl)-8,9-dihydro-5H-[1,2,4]triazolo[4,3-d][1,4]diazepine-7(6H)-carboxylate], the IC50 with intracellular HBV DNA (setting [2]) was greater than 3.3 µM. Also, the inhibition at 30 µM in experiment [1] (setting [3]) is -1%.

In turn, `CN(C)c1ccc(N(Cc2nnc3n2CCCCC3)C(=O)Nc2ccc(F)c(Cl)c2)cc1` [Example 34, 3-(3-Chloro-4-fluorophenyl)-1-(4-(dimethylamino)phenyl)-1-((6,7,8,9-tetrahydro-5H-[1,2,4]triazolo[4,3-a]azepin-3-yl)methyl)urea] displayed an IC50 with intracellular HBV DNA (setting [2]) greater than 3.3 µM. Also, the inhibition at 30 µM in experiment [1] (setting [3]) is -7%.

Take `COc1ccc(N(Cc2nnc(C)n2C2CCCC2)C(=O)Nc2ccc(F)c(Cl)c2)cc1` [Example 32, 3-(3-Chloro-4-fluorophenyl)-1-((4-cyclopentyl-5-methyl-4H-1,2,4-triazol-3-yl)methyl)-1-(4-methoxyphenyl)urea]: it took 0.32 µM to reach half-maximal inhibition in the experiment with intracellular HBV DNA (setting [2]) (IC50). The inhibition at 30 µM in experiment [1] (setting [3]) amounted to 23%. The EC50 in experiment [1] is 4.9 µM.

For `CC(C)(C)OC(=O)n1ccc2cc(N(Cc3nnc4n3CCCCC4)C(=O)Nc3ccc(F)c(Cl)c3)ccc21` [Example 17, tert-Butyl 5-(3-(3-chloro-4-fluorophenyl)-1-((6,7,8,9-tetrahydro-5H-[1,2,4]triazolo[4,3-a]azepin-3-yl)methyl)ureido)-1H-indole-1-carboxylate], the IC50 in the experiment on intracellular HBV DNA (setting [2]) was greater than 3.3 µM. Further, the inhibition at 30 µM in experiment [1] (setting [3]) turned out to be 92.6%. Moreover, in experiment [1], the EC50 is 13 µM.

`O=C(Nc1ccc(F)c(Cl)c1)N(Cc1nnc2n1CCCCCC2)c1ccc2c(c1)OCO2` [Example 30, 1-(Benzo[d][1,3]dioxol-5-yl)-3-(3-chloro-4-fluorophenyl)-1-((5,6,7,8,9,10-hexahydro-[1,2,4]triazolo[4,3-a]azocin-3-yl)methyl)urea]: half-maximal inhibition with intracellular HBV DNA (setting [2]) (IC50) required 0.74 µM. Further, the inhibition at 30 µM in experiment [1] (setting [3]) was found to be 32%. Besides, the EC50 in experiment [1] is 3.6 µM.

In the experiment with intracellular HBV DNA (setting [2]), `O=C(Nc1ccc(F)c(Cl)c1)N(Cc1nnc2n1CCCCC2)c1ccc2[nH]ccc2c1` [Example 18, 3-(3-Chloro-4-fluorophenyl)-1-(1H-indol-5-yl)-1-((6,7,8,9-tetrahydro-5H-[1,2,4]triazolo[4,3-a]azepin-3-yl)methyl)urea] displayed an IC50 greater than 3.3 µM. The inhibition at 30 µM in experiment [1] (setting [3]) turned out to be 96.8%. Also, in experiment [1], the EC50 stood at 4.8 µM.

In the experiment on intracellular HBV DNA (setting [2]), `COc1ccc(N(Cc2nnc(C)n2C)C(=O)Nc2ccc(F)c(Cl)c2)cc1` [Example 15, 3-(3-Chloro-4-fluorophenyl)-1-((4,5-dimethyl-4H-1,2,4-triazol-3-yl)methyl)-1-(4-methoxyphenyl)urea] returned an IC50 greater than 3.3 µM. Also, the inhibition at 30 µM in experiment [1] (setting [3]) is 55.3%. In experiment [1], the EC50 turned out to be 29 µM.

`O=C(Nc1ccc(F)c(Cl)c1)N(Cc1nnc2n1CCCCC2)C1CCCC1` [Example 6, 3-(3-Chloro-4-fluorophenyl)-1-cyclopentyl-1-((6,7,8,9-tetrahydro-5H-[1,2,4]triazolo[4,3-a]azepin-3-yl)methyl)urea] had an IC50 with intracellular HBV DNA (setting [2]) of 1.57 µM. In addition, the inhibition at 30 µM in experiment [1] (setting [3]) stood at 77%. The EC50 in experiment [1] is 1.2 µM.

Molecule `O=C(Nc1ccc(F)c(Cl)c1)N(Cc1nnc2n1CCCCC2)c1cccc(C(F)(F)F)c1` [Example 21, 3-(3-Chloro-4-fluorophenyl)-1-((6,7,8,9-tetrahydro-5H-[1,2,4]triazolo[4,3-a]azepin-3-yl)methyl)-1-(3-(trifluoromethyl)phenyl)urea] showed an IC50 in the experiment with intracellular HBV DNA (setting [2]) greater than 3.3 µM. In experiment [1], the EC50 was 11 µM. For the same molecule, the inhibition at 30 µM in experiment [1] (read-out: Protein % inhibition rate (@30 μM), @30 μM) amounted to 4%.

Regarding `COc1ccc(N(Cc2nnc3n2CCCCC3)C(=O)N(C)c2ccc(F)c(Cl)c2)cc1` [Example 9, 1-(3-Chloro-4-fluorophenyl)-3-(4-methoxyphenyl)-1-methyl-3-((6,7,8,9-tetrahydro-5H-[1,2,4]triazolo[4,3-a]azepin-3-yl)methyl)urea], in the experiment with intracellular HBV DNA (setting [2]), the IC50 is 0.75 µM. Moreover, in experiment [1] (setting [3]), the inhibition at 30 µM amounted to 5%.

Molecule `COC(=O)Cc1nnc(CN(C(=O)Nc2ccc(F)c(Cl)c2)c2ccc3c(c2)OCO3)[nH]1` [Example 45, Methyl 2-(5-((1-(benzo[d][1,3]dioxol-5-yl)-3-(3-chloro-4-fluorophenyl)ureido)methyl)-4H-1,2,4-triazol-3-yl)acetate] returned an IC50 in the experiment on intracellular HBV DNA (setting [2]) greater than 3.3 µM. Moreover, the inhibition at 30 µM in experiment [1] (setting [3]) came to 6%.

The molecule `O=C(Nc1ccc(F)c(Cl)c1)N(Cc1nnc2n1CCCCC2)c1ncco1` [Example 39, 3-(3-Chloro-4-fluorophenyl)-1-(oxazol-2-yl)-1-((6,7,8,9-tetrahydro-5H-[1,2,4]triazolo[4,3-a]azepin-3-yl)methyl)urea] showed an IC50 with intracellular HBV DNA (setting [2]) greater than 3.3 µM. For the same molecule, in experiment [1] (setting [3]), the inhibition at 30 µM is 100%. For the same molecule, the EC50 in experiment [1] was found to be 5.7 µM.

In turn, `CNc1ccc(N(Cc2nnc3n2CCCCC3)C(=O)Nc2ccc(F)c(Cl)c2)cc1` [Example 14, 3-(3-Chloro-4-fluorophenyl)-1-(4-(methylamino)phenyl)-1-((6,7,8,9-tetrahydro-5H-[1,2,4]triazolo[4,3-a]azepin-3-yl)methyl)urea] had an IC50 with intracellular HBV DNA (setting [2]) greater than 0.55 µM. Besides, the inhibition at 30 µM in experiment [1] (setting [3]) was 92%. Further, the EC50 in experiment [1] was 2.8 µM.

Regarding `N#Cc1ccc(N(Cc2nnc3n2CCCCC3)C(=O)Nc2ccc(F)c(Cl)c2)cc1` [Example 28, 3-(3-Chloro-4-fluorophenyl)-1-(4-cyanophenyl)-1-((6,7,8,9-tetrahydro-5H-[1,2,4]triazolo[4,3-a]azepin-3-yl)methyl)urea], the IC50 with intracellular HBV DNA (setting [2]) turned out to be 0.604 µM. In experiment [1] (setting [3]), the inhibition at 30 µM is 36%. In experiment [1], the EC50 worked out at 4 µM.

On to `O=C(Nc1cc(F)c(F)c(F)c1)c1ccc(F)c(S(=O)(=O)N2CCC(O)CC2)c1` [NVR, reference compound], for which the IC50 with intracellular HBV DNA (read-out: IC50) was 0.4 µM. Also, in experiment [1], the EC50 is 4.1 µM and 5.2 µM and 4.9 µM and 3.9 µM and 4.8 µM.

In the experiment on intracellular HBV DNA (setting [2]), `O=C(NC1CCCC1)N(Cc1nnc2n1CCCCC2)c1ccc2c(c1)OCO2` [Example 11, 1-(Benzo[d][1,3]dioxol-5-yl)-3-cyclopentyl-1-((6,7,8,9-tetrahydro-5H-[1,2,4]triazolo[4,3-a]azepin-3-yl)methyl)urea] gave an IC50 greater than 3.3 µM. In addition, the inhibition at 30 µM in experiment [1] (setting [3]) worked out at 4%.

For the molecule `COc1ccc(N(Cc2nnc(C)n2-c2ccccc2)C(=O)Nc2ccc(F)c(Cl)c2)cc1` [Example 25, 3-(3-Chloro-4-fluorophenyl)-1-(4-methoxyphenyl)-1-((5-methyl-4-phenyl-4H-1,2,4-triazol-3-yl)methyl)urea], in the experiment on intracellular HBV DNA (setting [2]), the IC50 was greater than 3.3 µM. For the same molecule, in experiment [1] (setting [3]), the inhibition at 30 µM is -2%.

The molecule `COc1ccc(N(Cc2nnc(C(C)C)n2C)C(=O)Nc2ccc(F)c(Cl)c2)cc1` [Example 29, 3-(3-Chloro-4-fluorophenyl)-1-((5-isopropyl-4-methyl-4H-1,2,4-triazol-3-yl)methyl)-1-(4-methoxyphenyl)urea] yielded a concentration for half-maximal inhibition (IC50) with intracellular HBV DNA (setting [2]) greater than 3.3 µM. Besides, in experiment [1] (setting [3]), the inhibition at 30 µM came out at 1%.

Regarding `COc1ccc(N(Cc2nnc(C3CCCC3)n2C)C(=O)Nc2ccc(F)c(Cl)c2)cc1` [Example 31, 3-(3-Chloro-4-fluorophenyl)-1-((5-cyclopentyl-4-methyl-4H-1,2,4-triazol-3-yl)methyl)-1-(4-methoxyphenyl)urea], the IC50 in the experiment on intracellular HBV DNA (setting [2]) came to 3.48 µM. Also, the inhibition at 30 µM in experiment [1] (setting [3]) was -4%. Also, the EC50 in experiment [1] came to 16 µM.

`N#Cc1cccc(N(Cc2nnc3n2CCCCC3)C(=O)Nc2ccc(F)c(Cl)c2)c1` [Example 19, 3-(3-Chloro-4-fluorophenyl)-1-(3-cyanophenyl)-1-((6,7,8,9-tetrahydro-5H-[1,2,4]triazolo[4,3-a]azepin-3-yl)methyl)urea] displayed an IC50 in the experiment with intracellular HBV DNA (setting [2]) greater than 3.3 µM. The inhibition at 30 µM in experiment [1] (setting [3]) amounted to 94%.

Consider `COc1ccc(N(Cc2nnc(C)n2C2CC2)C(=O)Nc2ccc(F)c(Cl)c2)cc1` [Example 37, 3-(3-Chloro-4-fluorophenyl)-1-((4-cyclopropyl-5-methyl-4H-1,2,4-triazol-3-yl)methyl)-1-(4-methoxyphenyl)urea], for which, in the experiment with intracellular HBV DNA (setting [2]), the IC50 was greater than 3.3 µM. Moreover, the inhibition at 30 µM in experiment [1] (setting [3]) is 84.1%.

On to `O=C(Nc1ccc(F)c(Cl)c1)N(Cc1nnc2n1CCCCC2)c1ccc2cc[nH]c2c1` [Example 10, 3-(3-Chloro-4-fluorophenyl)-1-(1H-indol-6-yl)-1-((6,7,8,9-tetrahydro-5H-[1,2,4]triazolo[4,3-a]azepin-3-yl)methyl)urea], for which the IC50 with intracellular HBV DNA (setting [2]) is greater than 3.3 µM. In addition, the inhibition at 30 µM in experiment [1] (setting [3]) is 85%.

The molecule `Cc1cccc(NC(=O)N(Cc2nnc3n2CCCCC3)c2ccc3c(c2)OCO3)n1` [Example 20, 1-(Benzo[d][1,3]dioxol-5-yl)-3-(6-methylpyridin-2-yl)-1-((6,7,8,9-tetrahydro-5H-[1,2,4]triazolo[4,3-a]azepin-3-yl)methyl)urea] came in with an IC50 in the experiment on intracellular HBV DNA (setting [2]) of 0.89 µM. The inhibition at 30 µM in experiment [1] (setting [3]) was found to be 3%.
